# Values joined by “and” are separate entries in the source; they are usually repeats but may differ in a detail not shown here. Equal values may be shown once.
# Assays:
# [1] = molecular target: T1, androgen receptor (AdEasy+rAR, COS-7 cells) (Rattus norvegicus, UniProt P15207); assay: COS-7 Whole-Cell Androgen Receptor Binding Assay, Adenovirus Transduction; details: for inhibition at 3 µM / % Inhibition, COS Binding: concentration of 3000 nM; for IC50: read-out: IC50 (nM), COS Binding
# T1 construct: expressed in transfected cells; host or cells: COS-7 cells transduced with adenovirus AdEasy+rAR
# T1 sequence (P15207 1-902): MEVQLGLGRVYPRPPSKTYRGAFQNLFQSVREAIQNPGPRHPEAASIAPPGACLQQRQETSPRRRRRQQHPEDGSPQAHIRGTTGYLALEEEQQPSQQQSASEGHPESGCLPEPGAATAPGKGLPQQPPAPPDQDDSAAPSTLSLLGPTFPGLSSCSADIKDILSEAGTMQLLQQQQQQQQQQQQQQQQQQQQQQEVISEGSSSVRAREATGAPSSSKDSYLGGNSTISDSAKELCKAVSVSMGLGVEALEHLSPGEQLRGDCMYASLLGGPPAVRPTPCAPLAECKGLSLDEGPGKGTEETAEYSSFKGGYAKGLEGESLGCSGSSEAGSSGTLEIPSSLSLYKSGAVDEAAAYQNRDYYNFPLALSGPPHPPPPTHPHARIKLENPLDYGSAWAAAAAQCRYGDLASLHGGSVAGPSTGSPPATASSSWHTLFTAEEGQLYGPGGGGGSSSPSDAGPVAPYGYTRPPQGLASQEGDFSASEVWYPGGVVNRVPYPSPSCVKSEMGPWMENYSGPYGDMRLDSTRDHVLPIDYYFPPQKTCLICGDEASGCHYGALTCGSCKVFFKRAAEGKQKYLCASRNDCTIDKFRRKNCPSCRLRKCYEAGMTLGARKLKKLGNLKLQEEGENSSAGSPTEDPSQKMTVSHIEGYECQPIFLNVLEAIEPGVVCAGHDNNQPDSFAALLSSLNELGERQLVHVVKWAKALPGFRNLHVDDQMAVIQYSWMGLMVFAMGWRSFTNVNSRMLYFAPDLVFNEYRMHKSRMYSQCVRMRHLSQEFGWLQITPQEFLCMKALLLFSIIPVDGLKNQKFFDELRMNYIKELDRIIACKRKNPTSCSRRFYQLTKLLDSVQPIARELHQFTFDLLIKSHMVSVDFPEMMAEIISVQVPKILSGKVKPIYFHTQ
# Procedure: COS-7 cells were plated in 96-well plates at 20,000 cells per well, in a solution of DMEM/F12 (GIBCO) containing 10% (v/v) charcoal-treated fetal bovine serum (Hyclone) and lacking phenol red. The cells were then incubated overnight at 37° C. in 5% (v/v) humidified CO2.
# Test compound solutions were prepared by diluting the test compound in 100% (v/v) DMSO, if necessary.
# Next, 1 mL of DMEM/F12 lacking phenol red was pipetted into each of the wells of a 2-mL 96-well assay block. […] The wells were carefully mixed by pipette.
# In a 15 mL or 50 mL sterile centrifuge tube, a dilution in DMEM/F12 of the adenovirus AdEasy+rAR at a moi of 1:50 per well was prepared.
# The medium was removed from the 96-well plates by inversion and the plates dried very briefly, inverted, on a sterile towel. As soon as possible after medium removal, 40 μL of the diluted test compound was added to each well, in duplicate. […] The plates were then incubated for 48 hours at 37° C. in 5% (v/v) humidified CO2.
# The medium was removed from the above incubated plates by inversion and dried. Each well was then washed with 0.35 mL of 1× PBS. The PBS was then removed from the plates by inversion and the plates dried.
# To each well was then added 50 μL of 0.5% (v/v) Triton X-100 (Sigma) in 1× PBS and the plates placed on a rotary shaker for 5 min. The contents of each well were then transferred to an OptiPlate-96 (Packard) scintillation plate. To each well was then added 0.2 mL of Microscint-20 (Packard) and the wells counted on a TopCount (Packard).
# Percent inhibition was determined by testing dilutions of the test compound (usually duplicates of 10 μM) in the binding assay. Counts per well were measured and percents of inhibition determined. […] Counts per well were measured and IC50s determined by linear regression.
# [2] = system: testosterone-enhanced ventral prostate and seminal vesicle weights; assay: Ventral Prostate and Seminal Vesicle Weight in vivo Assay; parameters: species or system rat; details: immature castrated male Sprague Dawley rats, once daily for five days, usually orally 40 mg/kg, with testosterone propionate 2 mg/kg s.c. Note: key: 'active' if the non weight adjusted prostate weight was ≦40 mg or the % Inhibition prostate weight, body weight adjusted was ≧40% @ 2 mg/day dosage; ID50's, if determined, of ≦15 mg/day also indicated an 'active' compound; listed herein as 'inactive' as they did not meet the specified criteria defined above.
# How it was run: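 Wet weights of ventral prostate and seminal vesicles were taken on day six. Castrated immature male Sprague Dawley rats had received five daily doses of testosterone propionate (2 mg/kg s.c.) together with test compound, typically 40 mg/kg orally. Activity was scored from absolute prostate weight or body-weight-adjusted % inhibition.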
# [3] = molecular target: T2, androgen receptor (AdEasy+rAR, L929 cells) (Rattus norvegicus, UniProt P15207); assay: L929 Androgen Receptor Functional Assay, Adenovirus Transduction; format: cell-based; details: for % Activity, L929 androgen receptor functional assay / EC50: agonist testing; for IC50: antagonist testing with R1881; for inhibition at 3 µM: L929, antagonist testing with R1881, 3000 nM; for % Inhibition, L929 androgen receptor functional assay: antagonist testing with R1881, 3000 nM
# T2 construct: expressed in transfected cells; host or cells: L929 cells transduced with adenovirus AdEasy+rAR
# T2 sequence (P15207 1-902): T1 sequence (P15207 1-902)
# How it was run: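 Luminescent reporter readout after 48 h at 37 °C: rat AR delivered by adenovirus (AdEasy+rAR, moi 1:500) into L929 cells grown without phenol red in charcoal-treated serum. Antagonist wells also received R1881 (2.5× dilution at 2.5 nM).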
structure (smiles),measurement,setting,value
"CCSCC(C)(O)c1cc2cc([N+](=O)[O-])c(C(F)(F)F)cc2n1C (single isomer, unassigned) [Compound 231]",inhibition at 3 µM,[1],73%
same,"% Inhibition, COS Binding",[1]; 3 µM,78%
same,IC50,[1],665 nM and > 3000 nM
same,active / inactive: inhibition of testosterone-enhanced prostate weight,[2],active
same,"% Activity, L929 androgen receptor functional assay","[3]; 3000 nM, 3 µM",0% and −1%
same,IC50,[3],3180 nM
CC(O)(CSCC(F)(F)F)c1cc2cc(Cl)c(C(F)(F)F)cc2[nH]1 (stereo not drawn) [Compound 190],inhibition at 3 µM,[1],100%
same,IC50,[1],292 nM
same,active / inactive: inhibition of testosterone-enhanced prostate weight,[2],active
same,inhibition at 3 µM,[3],97%
same,"% Activity, L929 androgen receptor functional assay",[3]; 3000 nM,1%
C[S+]([O-])CCC(C)(O)c1cc2cc([N+](=O)[O-])c(C(F)(F)F)cc2[nH]1 (mixture of isomers) [Compound 50],"% Inhibition, COS Binding",[1],7%
same,active / inactive: inhibition of testosterone-enhanced prostate weight,[2],inactive
same,"% Activity, L929 androgen receptor functional assay",[3]; 3000 nM,2%
O=[N+]([O-])c1cc2cc(C3(O)CCSCC3)[nH]c2cc1C(F)(F)F [Compound 17],IC50,[1],> 1500 nM
same,active / inactive: inhibition of testosterone-enhanced prostate weight,[2],inactive
CCSCC(C)(OC)c1cc2cc(C#N)c(C(F)(F)F)cc2n1C (stereo not drawn) [Compound 235],inhibition at 3 µM,[1],78%
same,IC50,[1],520 nM
same,active / inactive: inhibition of testosterone-enhanced prostate weight,[2],inactive
same,inhibition at 3 µM,[3],95%
same,"% Activity, L929 androgen receptor functional assay",[3]; 3000 nM,3%
same,IC50,[3],1840 nM
CCSCC(C)(O)c1cc2cc(F)c(C(F)(F)F)cc2[nH]1 (stereo not drawn) [Compound 159],IC50,[1],240 nM
same,active / inactive: inhibition of testosterone-enhanced prostate weight,[2],active
same,"% Activity, L929 androgen receptor functional assay",[3]; 3000 nM,2%
CC(O)(CSc1ccccc1N)c1cc2cc(Cl)c(C(F)(F)F)cc2[nH]1 (stereo not drawn) [Compound 123],IC50,[1],> 3000 nM
same,active / inactive: inhibition of testosterone-enhanced prostate weight,[2],inactive
same,"% Activity, L929 androgen receptor functional assay",[3]; 3000 nM,−4%
same,"% Activity, L929 androgen receptor functional assay",[3]; @ 8000 nM,1 @ 8000 nM %
CCSCC(C)(O)c1cc2cc(Br)c(C(F)(F)F)cc2[nH]1 (stereo not drawn) [Compound 220],IC50,[1],34 nM
same,active / inactive: inhibition of testosterone-enhanced prostate weight,[2],inactive
same,inhibition at 3 µM,[3],103%
same,"% Activity, L929 androgen receptor functional assay",[3]; 3000 nM,−3%
CC(O)(CSCC(F)(F)F)c1[nH]c2cc(C(F)(F)F)c([N+](=O)[O-])cc2c1I (stereo not drawn) [Compound 213],inhibition at 3 µM,[1],71%
same,IC50,[1],> 600 nM
same,active / inactive: inhibition of testosterone-enhanced prostate weight,[2],active
same,inhibition at 3 µM,[3],92%
same,EC50,[3],> 8000 nM
same,"% Activity, L929 androgen receptor functional assay",[3]; @ 8000 nM,−1 @ 8000 nM %
same,IC50,[3],372 nM
CCC(O)(CSCC(F)(F)F)c1cc2cc(F)c(C(F)(F)F)cc2[nH]1 (stereo not drawn) [Compound 194],inhibition at 3 µM,[1],80%
same,IC50,[1],320 nM
same,active / inactive: inhibition of testosterone-enhanced prostate weight,[2],inactive
same,inhibition at 3 µM,[3],40%
same,"% Activity, L929 androgen receptor functional assay",[3]; 3000 nM,2%
CCC(O)(CS(=O)(=O)CC(F)(F)F)c1cc2cc([N+](=O)[O-])c(C(F)(F)F)cc2[nH]1 (stereo not drawn) [Compound 191],inhibition at 3 µM,[1],65%
same,IC50,[1],840 nM
same,active / inactive: inhibition of testosterone-enhanced prostate weight,[2],active
same,inhibition at 3 µM,[3],-6%
same,"% Activity, L929 androgen receptor functional assay",[3]; 3000 nM,2%
"CC(O)(CSCC(F)(F)F)c1cc2cc([N+](=O)[O-])c(C(F)(F)F)cc2[nH]1 (single isomer, unassigned) [Compound 202]","% Inhibition, COS Binding",[1]; 3 µM,50%
same,active / inactive: inhibition of testosterone-enhanced prostate weight,[2],active
same,"% Activity, L929 androgen receptor functional assay","[3]; 3000 nM, 3 µM",1%
"CCS(=O)(=O)CC(C)(O)c1[nH]c2cc(C(F)(F)F)c(C#N)cc2c1C (single isomer, unassigned) [Compound 252]","% Inhibition, COS Binding",[1]; 3 µM,68%
same,IC50,[1],> 3000 nM
same,active / inactive: inhibition of testosterone-enhanced prostate weight,[2],active
same,"% Activity, L929 androgen receptor functional assay","[3]; 3000 nM, 3 µM",1%
same,IC50,[3],3100 nM
same,"% Inhibition, L929 androgen receptor functional assay",[3]; 3 µM,65%
CCSCC(C)(O)c1cc2cc(C#N)c(C(F)(F)F)cc2[nH]1 (stereo not drawn) [Compound 209],inhibition at 3 µM,[1],61%
same,IC50,[1],1840 nM
same,active / inactive: inhibition of testosterone-enhanced prostate weight,[2],active
same,EC50,[3],> 8000 nM
same,"% Activity, L929 androgen receptor functional assay",[3]; @ 8000 nM,−3 @ 8000 nM %
same,IC50,[3],372 nM
"CCSCC(C)(O)c1[nH]c2cc(C(F)(F)F)c([N+](=O)[O-])cc2c1C#N (single isomer, unassigned) [Compound 247]",inhibition at 3 µM,[1],90%
same,IC50,[1],60.7 nM
same,active / inactive: inhibition of testosterone-enhanced prostate weight,[2],inactive
CCC(O)(CSCC(F)(F)F)c1cc2cc(Cl)c(C(F)(F)F)cc2[nH]1 (stereo not drawn) [Compound 192],inhibition at 3 µM,[1],86%
same,IC50,[1],82 nM
same,active / inactive: inhibition of testosterone-enhanced prostate weight,[2],active
same,inhibition at 3 µM,[3],89%
same,"% Activity, L929 androgen receptor functional assay",[3]; 3000 nM,8%
CC(O)(CSCC(F)(F)F)c1cc2cc([N+](=O)[O-])c(C(F)(F)F)cc2[nH]1 (stereo not drawn) [Compound 201],"% Inhibition, COS Binding",[1]; 3 µM,86%
same,IC50,[1],340 nM
same,active / inactive: inhibition of testosterone-enhanced prostate weight,[2],inactive
same,"% Activity, L929 androgen receptor functional assay","[3]; 3000 nM, 3 µM",2%
same,"% Inhibition, L929 androgen receptor functional assay",[3]; 3 µM,83%
CN(C)c1ccccc1SCC(C)(O)c1cc2cc(Cl)c(C(F)(F)F)cc2[nH]1 (stereo not drawn) [Compound 127],"% Inhibition, COS Binding",[1]; 3 µM,41% and 74%
same,IC50,[1],> 1200 nM
same,active / inactive: inhibition of testosterone-enhanced prostate weight,[2],inactive
same,"% Activity, L929 androgen receptor functional assay",[3]; 3000 nM,−5%
CC(O)(CSCC(F)(F)F)c1cc2cc(F)c(C(F)(F)F)cc2[nH]1 (stereo not drawn) [Compound 189],inhibition at 3 µM,[1],100%
same,IC50,[1],280 nM
same,active / inactive: inhibition of testosterone-enhanced prostate weight,[2],inactive
same,inhibition at 3 µM,[3],85%
same,"% Activity, L929 androgen receptor functional assay",[3]; 3000 nM,3%
CCSCC(C)(O)c1[nH]c2cc(C(F)(F)F)c([N+](=O)[O-])cc2c1C#N (stereo not drawn) [Compound 242],inhibition at 3 µM,[1],92%
same,IC50,[1],305 nM
same,active / inactive: inhibition of testosterone-enhanced prostate weight,[2],inactive
CCSCC(C)(O)Cc1cc2cc([N+](=O)[O-])c(C(F)(F)F)cc2[nH]1 (stereo not drawn) [Compound 10],IC50,[1],> 3000 nM
same,active / inactive: inhibition of testosterone-enhanced prostate weight,[2],inactive
CCSCC(C)(OC)c1cc2cc([N+](=O)[O-])c(C(F)(F)F)cc2[nH]1 (stereo not drawn) [Compound 167],IC50,[1],> 3000 nM
same,active / inactive: inhibition of testosterone-enhanced prostate weight,[2],active
CCSCC(C)(CO)c1cc2cc([N+](=O)[O-])c(C(F)(F)F)cc2[nH]1 (stereo not drawn) [Compound 11],IC50,[1],> 3000 nM
same,active / inactive: inhibition of testosterone-enhanced prostate weight,[2],inactive
